PubChem BioAssay AID2165 (The Scripps Research Institute Molecular Screening Center, 2009)
Activity calls are given as the source filed them. No stated cut-off is given here; in the data, active means IC50 below about 9 µM; inactive means the rest.

Target: Tyrosine-protein kinase JAK2 (Homo sapiens) (UniProt O60674)
Assay: JAK2V617F kinase, IRF1 reporter and Ba/F3 cytotoxicity panel, late-stage follow-up, HEL and Ba/F3 cells (AID 2165)

Chain of Tyrosine-protein kinase JAK2 (Homo sapiens) (O60674 whole entry, looked up, change not shown): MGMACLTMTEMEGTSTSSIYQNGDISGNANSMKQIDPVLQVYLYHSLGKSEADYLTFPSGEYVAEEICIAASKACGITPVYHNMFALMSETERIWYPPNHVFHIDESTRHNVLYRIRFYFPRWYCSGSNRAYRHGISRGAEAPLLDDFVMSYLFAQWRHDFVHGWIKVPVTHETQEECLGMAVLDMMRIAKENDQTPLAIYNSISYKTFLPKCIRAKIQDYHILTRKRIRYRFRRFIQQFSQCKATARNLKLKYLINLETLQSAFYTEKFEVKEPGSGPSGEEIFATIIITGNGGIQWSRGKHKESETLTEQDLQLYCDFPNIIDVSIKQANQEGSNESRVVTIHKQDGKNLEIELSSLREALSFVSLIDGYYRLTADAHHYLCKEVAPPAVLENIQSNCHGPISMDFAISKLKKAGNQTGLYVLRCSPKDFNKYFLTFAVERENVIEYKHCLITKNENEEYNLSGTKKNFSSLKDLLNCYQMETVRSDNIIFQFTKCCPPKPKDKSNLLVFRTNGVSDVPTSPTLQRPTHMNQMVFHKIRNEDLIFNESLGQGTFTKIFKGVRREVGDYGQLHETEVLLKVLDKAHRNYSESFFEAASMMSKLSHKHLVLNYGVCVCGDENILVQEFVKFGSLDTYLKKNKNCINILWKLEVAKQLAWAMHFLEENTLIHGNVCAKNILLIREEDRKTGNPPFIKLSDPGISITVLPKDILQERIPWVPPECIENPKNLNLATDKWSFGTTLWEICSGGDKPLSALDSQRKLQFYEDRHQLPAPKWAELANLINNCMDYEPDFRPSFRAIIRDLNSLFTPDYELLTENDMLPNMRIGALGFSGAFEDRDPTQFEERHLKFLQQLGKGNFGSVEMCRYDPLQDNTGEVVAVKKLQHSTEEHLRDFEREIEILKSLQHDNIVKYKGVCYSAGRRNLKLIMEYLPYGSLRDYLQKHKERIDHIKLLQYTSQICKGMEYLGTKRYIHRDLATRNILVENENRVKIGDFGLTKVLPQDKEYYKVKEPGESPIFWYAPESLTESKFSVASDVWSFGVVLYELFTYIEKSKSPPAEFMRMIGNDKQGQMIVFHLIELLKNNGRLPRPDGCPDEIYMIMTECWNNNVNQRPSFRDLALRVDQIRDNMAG

Row | Structure (SMILES) | IC50 (Ba/F3, irf1 reporter) | IC50 (HEL, irf1 reporter) | IC50 (JAK2V617F)
1 | Clc1ccc(-n2nnnc2Sc2ncnc3sccc23)cc1 | 1.19 µM | 23.3 µM | 
2 | O=S(=O)(c1cnc(Cl)c(Cl)c1)N1CCc2ccccc21 | 6.39 µM | > 40 µM (inactive) | 
3 | O=C(Oc1cccc2c(O)cccc12)c1ccccc1 | 8.18 µM | > 40 µM (inactive) | 
4 | Cc1ccc(O)c(NC(=O)COc2cc(C)c(Cl)c(C)c2)c1 |  |  | > 40 µM (inactive)
5 | N#C/C(=C\c1ccc(O)c(O)c1)C(=O)NCCc1ccccc1 | 0.2 µM | 5.15 µM | 0.79 µM
6 | O=C1/C(=C/c2ccc(O)c(O)c2)SC(=S)N1Nc1ccccc1 | 4.04 µM | 10.2 µM | 
7 | COc1ccc(C=CC(=O)c2c3c(c(C)[nH]c2=O)CCCC3)cc1 | > 40 µM (inactive) | > 40 µM (inactive) | 6.94 µM
8 | COc1ccc(C)cc1NC(=O)Nc1ccc(Br)cn1 |  | > 40 µM (inactive) | > 40 µM (inactive)
9 | Cc1[nH]c2ccccc2c(=O)c1C(=O)/C=C/c1ccccc1 | > 40 µM (inactive) | 3.98 µM | 
10 | COc1ccc(-n2nnnc2SCC(=O)c2ccc(O)c(O)c2)cc1 | 6.22 µM | 25.5 µM | 
11 | COc1cccc(/C=N/NC(=O)c2[nH]c(C)c(C(=O)N/N=C/c3cccc(OC)c3O)c2C)c1O | 19.8 µM | 9.67 µM | 
12 | COCCOc1cc2nc[nH]c(=O)c2cc1OCCOC |  | > 40 µM (inactive) | > 40 µM (inactive)
13 | Cc1cc(C)c(C(=O)/C=C/c2ccccc2F)c(=O)[nH]1 | 24 µM | 1.17 µM | 0.71 µM
14 | Cc1ccc(O)c(NC(=O)COc2cc(C)ccc2C)c1 |  |  | 2.23 µM
15 | COc1ccccc1C(C[N+](=O)[O-])c1c(N)n(C)c(=O)n(C)c1=O (stereo not given) | 6.82 µM | 17 µM | 
16 | Cc1[nH]c(=O)c(C(=O)C=Cc2ccc(Br)cc2)c2c1CCCC2 | 0.98 µM | 1.03 µM | 3.64 µM
17 | CCCn1c(CN(C)Cc2ccccc2)nc2c1c(=O)n(C)c(=O)n2C | 6.43 µM | > 40 µM (inactive) | 
18 | Nc1nc(CCl)nc(Nc2ccc3ccccc3c2)n1 | 7.46 µM | 0.958 µM | 
19 | COc1ccc(OC)c(NS(=O)(=O)c2ccc(SC)cc2)c1 | 22.9 µM | > 40 µM (inactive) | 
20 | Cc1ccc(Cn2ccsc2=NC(=O)CCl)cc1 | 6.74 µM | 3.11 µM | 
21 | Cc1cc2[nH]c3c(c[n+](C)c4ccccc34)c2cc1C | 7.72 µM | 7.35 µM | 
22 | Oc1ccc(Cl)cc1N=Cc1sc2ccccc2c1Cl | 3.42 µM | 5.53 µM | 

Row | Structure (SMILES) | IC50 (Ba/F3, irf1 reporter) | IC50 (HEL, irf1 reporter) | IC50 (JAK2V617F)
23 | O=c1cnn([C@@H]2O[C@H](CO)[C@@H](O)[C@H]2O)c(=O)[nH]1 | > 40 µM (inactive) | > 40 µM (inactive) | 
24 | O=c1oc2ccc(Cl)cc2nc1/C=C(\O)c1ccco1 | 5.55 µM | 4.75 µM | 
25 | COc1ccccc1OCC(=O)Nc1cc(C)ccc1O |  |  | 0.0392 µM
26 | COc1cc(/C=C2\COC/C(=C\c3ccc(O)c(OC)c3)C2=O)ccc1O | 1.99 µM | 7.86 µM | 
27 | Cc1ccc(NC(=O)C(=Cc2ccc(C(=O)O)cc2)C(=O)Nc2ccc(C)cc2C)c(C)c1 | 2.9 µM | 2.8 µM | 
28 | CC(C)[C@@H](CO)Nc1nc(Nc2cccc(Cl)c2)c2ncn(C(C)C)c2n1 | 0.84 µM | 1.13 µM | 0.91 µM
29 | CC(C)C1C(C#N)=C(N)Oc2n[nH]c(-c3ccc4ccccc4c3)c21 (stereo not given) | 4.7 µM | 16.1 µM | 
30 | COc1ccc(Nc2ccc3c(c2)=NC2(CCCCC2)[N+]=3[O-])cc1 | 5.6 µM | 5.14 µM | 
31 | COc1cc2ncnc(Nc3cccc(Cl)c3)c2cc1OC |  | > 40 µM (inactive) | > 40 µM (inactive)
32 | Cc1ccc(Nc2nc(N)nc(CCl)n2)cc1 | 12.7 µM | 5.6 µM | 
33 | CC1CCCN(CCCNC(=O)c2cc3c(Cl)nc4ccccc4c3s2)C1 (stereo not given) | 11.6 µM | > 40 µM (inactive) | 
34 | N#C/C(=C\c1ccc(O)c(O)c1)C(=O)NCCCc1ccccc1 | 6.03 µM | 16.1 µM | 
35 | Cc1ccc(O)c(NC(=O)COc2ccc(Br)cc2)c1 |  |  | 0.0327 µM
36 | N#C/C(=C\c1ccc(O)c(O)c1)C(=O)NCCCCc1ccccc1 | 0.25 µM | 3.31 µM | 0.76 µM
37 | Cc1ccc(O)c(NC(=O)COc2ccccc2C)c1 |  |  | > 40 µM (inactive)
38 | c1ccc2c(c1)CSc1sccc1C2=C1CCNCC1 | 5.89 µM | > 40 µM (inactive) | 
39 | COc1cc2ncnc(N[C@H](C)c3ccccc3)c2cc1OC |  | 13.1 µM | 3.18 µM
40 | CCCCCCN(C(=O)CCl)c1ccccc1 | 3.62 µM | 8.71 µM | 
41 | c1ccc2c(CN3CCCCCC3)c[nH]c2c1 | 14.3 µM | 15.9 µM | 
42 | COC1(OC)C(/C=C/c2ccc(Cl)cc2)C(C#N)(C#N)C1(OC)OC (stereo not given) | 1.33 µM | 6.57 µM | 
43 | COc1cc2ncnc(Nc3cccc(C)c3)c2cc1OC |  | 7.18 µM | > 40 µM (inactive)
44 | COc1ccccc1/C=C/C(=O)c1c2c(c(C)[nH]c1=O)CCCC2 | > 40 µM (inactive) | 1.3 µM | 1.27 µM
